According to patent US12479840B2, “HMG-CoA reductase degradation inducing compound” (Uppthera, priority 2020, dated 2025):

Molecular target: T1, HMG-CoA reductase (Homo sapiens, UniProt P04035)
T1 construct: endogenous in cells; host or cells: HepG2 (Korea Cell Line Bank)
T1 sequence (P04035 1-888): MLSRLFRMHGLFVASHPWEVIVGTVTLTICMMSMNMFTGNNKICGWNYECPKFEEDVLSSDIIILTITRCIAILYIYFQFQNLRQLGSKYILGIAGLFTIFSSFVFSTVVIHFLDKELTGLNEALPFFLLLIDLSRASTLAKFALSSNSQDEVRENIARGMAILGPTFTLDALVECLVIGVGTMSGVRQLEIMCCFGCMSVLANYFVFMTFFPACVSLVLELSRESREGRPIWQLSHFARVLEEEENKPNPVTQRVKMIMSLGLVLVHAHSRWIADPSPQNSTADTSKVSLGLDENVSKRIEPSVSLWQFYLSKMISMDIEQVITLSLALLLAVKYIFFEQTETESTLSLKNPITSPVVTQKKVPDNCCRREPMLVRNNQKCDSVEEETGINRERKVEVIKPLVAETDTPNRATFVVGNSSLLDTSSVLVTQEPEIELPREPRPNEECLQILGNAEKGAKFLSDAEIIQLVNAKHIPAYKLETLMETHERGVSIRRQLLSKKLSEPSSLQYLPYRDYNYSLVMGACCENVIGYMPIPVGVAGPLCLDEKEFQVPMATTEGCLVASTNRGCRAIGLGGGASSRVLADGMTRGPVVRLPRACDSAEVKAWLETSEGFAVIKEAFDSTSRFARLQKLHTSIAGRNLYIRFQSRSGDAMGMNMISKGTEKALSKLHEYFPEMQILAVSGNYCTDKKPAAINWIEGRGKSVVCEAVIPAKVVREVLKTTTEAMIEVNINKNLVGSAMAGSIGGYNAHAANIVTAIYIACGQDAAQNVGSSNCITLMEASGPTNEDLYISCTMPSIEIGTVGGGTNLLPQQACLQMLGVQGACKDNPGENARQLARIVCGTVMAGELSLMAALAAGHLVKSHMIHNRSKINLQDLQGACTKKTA
Test: HMG-CoA reductase (HMGCR) degradation in HepG2 cells by western blotting
Assay type: cell-based
Conditions: treated for 18 hours, ratio of HMG-CoA reductase to GAPDH, read-out: DC50
Method in brief: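 HepG2 cells (passage P105–P110) treated 18 hours with compounds in 10-point three-fold dilutions from 3 μM. RIPA lysates (15 μg protein, BCA-quantified) run on SDS-PAGE and immunoblotted for HMGCR (1:500) with GAPDH (1:20000) as loading control, primary antibodies 16 hours at 4° C.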

| Compound | DC50 [nM] |
| --- | --- |
| C[C@H]1C=C2C=C[C@H](C)[C@H](CC[C@@H]3C[C@@H](O[Si](C)(C)C(C)(C)C)CC(=O)O3)[C@H]2[C@@H](OC(=O)N2CCC(CCOCCNc3cccc4c3C(=O)N(C3CCC(=O)NC3=O)C4=O)CC2)C1 (stereo partly drawn) [Compound 84, (1S,3R,7S,8S,8aR)-8-(2-((2R,4R)-4-((tert-butyldimethylsilyl)oxy)-6-oxotetrahydro-2H-pyran-2-yl)ethyl)-3,7-dimethyl-1,2,3,7,8,8a-hexahydronaphthalen-1-yl4-(2-(2-((2-(2,6-dioxopiperidin-3-yl)-1,3-dioxoisoindolin-4-yl)amino)ethoxy)ethyl)piperidine-1-carboxylate] | < 50 |
| C[C@H]1C=C2C=C[C@H](C)[C@H](CC[C@@H]3C[C@@H](O)CC(=O)O3)[C@H]2[C@@H](OC(=O)N2CCC(CCOCCNc3cccc4c3C(=O)N(C3CCC(=O)NC3=O)C4=O)CC2)C1 (stereo partly drawn) [Compound 85, (1S,3R,7S,8S,8aR)-8-(2-((2R,4R)-4-hydroxy-6-oxotetrahydro-2H-pyran-2-yl)ethyl)-3,7-dimethyl-1,2,3,7,8,8a-hexahydronaphthalen-1-yl4-(2-(2-((2-(2,6-dioxopiperidin-3-yl)-1,3-dioxoisoindolin-4-yl)amino)ethoxy)ethyl)piperidine-1-carboxylate] | < 50 |
| C[C@H]1C=C2C=C[C@H](C)[C@H](CC[C@@H]3C[C@@H](O[Si](C)(C)C(C)(C)C)CC(=O)O3)[C@H]2[C@@H](OC(=O)NCCOCCNc2cccc3c2C(=O)N(C2CCC(=O)NC2=O)C3=O)C1 (stereo partly drawn) [Compound 86, (1S,3R,7S,8S,8aR)-8-(2-((2R,4R)-4-((tert-butyldimethylsilyl)oxy)-6-oxotetrahydro-2H-pyran-2-yl)ethyl)-3,7-dimethyl-1,2,3,7,8,8a-hexahydronaphthalen-1-yl (2-(2-((2-(2,6-dioxopiperidin-3-yl)-1,3-dioxoisoindolin-4-yl)amino)ethoxy)ethyl)carbamate] | < 50 |
| C[C@H]1C=C2C=C[C@H](C)[C@H](CC[C@@H]3C[C@@H](O)CC(=O)O3)[C@H]2[C@@H](OC(=O)NCCOCCNc2cccc3c2C(=O)N(C2CCC(=O)NC2=O)C3=O)C1 (stereo partly drawn) [Compound 87, (1S,3R,7S,8S,8aR)-8-(2-((2R,4R)-4-hydroxy-6-oxotetrahydro-2H-pyran-2-yl)ethyl)-3,7-dimethyl-1,2,3,7,8,8a-hexahydronaphthalen-1-yl (2-(2-((2-(2,6-dioxopiperidin-3-yl)-1,3-dioxoisoindolin-4-yl)amino)ethoxy)ethyl)carbamate] | < 50 |
| C[C@H]1C=C2C=C[C@H](C)[C@H](CC[C@@H]3C[C@@H](O[Si](C)(C)C(C)(C)C)CC(=O)O3)[C@H]2[C@@H](OC(=O)NCCCCOCCCCNc2cccc3c2C(=O)N(C2CCC(=O)NC2=O)C3=O)C1 (stereo partly drawn) [Compound 88, (1S,3R,7S,8S,8aR)-8-(2-((2R,4R)-4-((tert-butyldimethylsilyl)oxy)-6-oxotetrahydro-2H-pyran-2-yl)ethyl)-3,7-dimethyl-1,2,3,7,8,8a-hexahydronaphthalen-1-yl (4-(4-((2-(2,6-dioxopiperidin-3-yl)-1,3-dioxoisoindolin-4-yl)amino)butoxy)butyl)carbamate] | < 50 |
| C[C@H]1C=C2C=C[C@H](C)[C@H](CC[C@@H]3C[C@@H](O)CC(=O)O3)[C@H]2[C@@H](OC(=O)NCCCCOCCCCNc2cccc3c2C(=O)N(C2CCC(=O)NC2=O)C3=O)C1 (stereo partly drawn) [Compound 89, (1S,3R,7S,8S,8aR)-8-(2-((2R,4R)-4-hydroxy-6-oxotetrahydro-2H-pyran-2-yl)ethyl)-3,7-dimethyl-1,2,3,7,8,8a-hexahydronaphthalen-1-yl (4-(4-((2-(2,6-dioxopiperidin-3-yl)-1,3-dioxoisoindolin-4-yl)amino)butoxy)butyl)carbamate] | < 50 |
